{"source": "patent US20020062490A1", "about": "“Hypertension” (priority 2000, published 2002)", "key": {"aortic VSM cells [1]": {"system": "aortic VSM cells", "test": "Intracellular cAMP accumulation (adenylyl cyclase activity) in cultured aortic VSM cells", "format": "cell-based", "conditions": "aortic VSM cells from SM22α-GRK2-25 mice, compared with NLC cells", "description": "Cell Culture: Primary cultures of VSM from thoracic aortas and vena cava were obtained and cultured as described (Chen et al, J. Biol. Chem. 270:30980-30988 (1995)). To determine adenylyl cyclase activity, cultured cells were grown to four days post-confluence. Cells were then labeled overnight in 3.0 μCi/mL [^3H]adenine (DuPont/NEN) in medium 199 and then preincubated in medium 199 with 10 mM Hepes and 1 mM 3-isobutyl-1-methylxanthine (IBMX) for 30 min. Cells were then stimulated with the appropriate concentration of isoproterenol or […] for 15 minutes. Following incubation, cAMP was determined by anion exchange chromatography and a percent incorporation of the total [^3H] uptake was calculated. To determine if enhanced expression and activity of GRK2 seen in cultured VSM cells from SM22α-GRK2 mice could exert an effect on signaling, intracellular cAMP accumulation in cultured aortic VSM cells in response to the βAR agonist isoproterenol was examined."}, "[2]": {"test": "Blood pressure responses in anesthetized mice to infused GPCR agonists", "format": "in vivo", "conditions": "for decrease from resting MAP: 0.156 μg/kg isoproterenol, n=3; for change from resting diastolic pressure: 0.625 μg/kg isoproterenol; for diastolic pressure response: 10 μg/kg isoproterenol; for MAP response (increase over resting MAP): 8 μg/kg phenylephrine; for increase over resting MAP: 1 μg/kg angiotensin II", "description": "In order to begin to understand the mechanisms involved in the GRK2 overexpression-induced hypertension and the receptors that are desensitized, blood pressure responses were measured in anesthetized mice following angiotensin II (FIG. 5A), phenylephrine (FIG. 5B) or isoproterenol (FIG. 5C) infusion. The response to 1 μg/kg angiotensin II was attenuated (NLC 91+12%, n=9 versus BK25 43+8% increase over resting MAP, n=4, p=0.02), as were responses to 8 μg/kg phenylephrine (NLC: 44±11% versus 4±5%, n=4, p=0.04). MAP responses to isoproterenol were not different in GRK2 overexpressing mice as compared with NLC. However, isoproterenol has a significant effect on heart rate that could affect MAP. Therefore, diastolic pressure was examined as a rough estimate of peripheral resistance.\nIn vivo Physiology: Mice were anesthetized with ketamine (100 mg/kg body weight) and xylazine (5 mg/kg body weight). Subsequently, a flexible plastic catheter (flame-stretched PE50 tubing) was placed in the left carotid artery to monitor arterial pressure and tunneled subcutaneously to exit at the nape of the neck. The catheter was then flushed with 100 μL of heparinized phosphate-buffered saline (PBS) (30 U/mL), sealed and attached to the skin between the scapulae. Twenty-four hours later, blood pressure measurements are recorded from awake, unrestrained mice. Intra-arterial blood pressure is recorded continuously through the carotid catheter using PowerLab (ADInstruments, Mountainview, Calif.) data acquisition and software. In both anesthetized and awake animals, systolic (SBP) and diastolic blood pressure (DBP), and heart rate were measured. Mean arterial pressure (MAP) was calculated as DBP+⅓(SBP- DBP). The recordings from animals in each experimental group were then integrated and averaged. To analyze acute blood pressure responses, a second catheter was placed in the jugular vein to infuse agonists. Immediately following an equilibration period, mice received a bolus injection at 2-5 min intervals."}, "aortic VSM cells [3]": {"system": "aortic VSM cells", "test": "MAPK (ERK1/2) activity after βAR stimulation in aorta VSM cells", "format": "cell-based, mice", "conditions": "10^−5M isoproterenol, 5 minutes", "description": "MAPK Activity: To study MAPK activity, cells were stimulated with isoproterenol at the described concentration for 5 minutes. Cells were then harvested and homogenized in ice-cold RIPA buffer with 1 mM sodium orthovanadate (Iaccarino et al, Proc. Natl. Acad. Sci. USA 96:3945-3950 (1999b)). MAPK activity as assessed by phosphorylated protein levels was performed by activity assays as previously described (Iaccarino et al, Proc. Natl. Acad. Sci. USA 96:3945-3950 (1999b)). Protein immunoblotting for the activated phosphorylated forms of ERK1/2 and JNK1/3 (New England Biolabs) was normalized to total MAPK levels using antibodies specific to total ERK1/2 and JNK1 (Santa Cruz Biotechnologies, California).\nAs a second assay to measure βAR mediated signaling in VSM cells from GRK2 transgenic and NLC mice, we investigated MAPK activity after βAR stimulation. Two MAPKs were studied, extracellular-regulated kinase (ERK1/2 or p42/p44 MAPKs) and c-jun kinase (JNK). FIG. 7C is a representative autoradiograph of the ability of immunoprecipitated ERK1/2 or JNK1/3 to phosphorylates their in vitro substrates myelin basic protein (MBP) or GST-c-jun, respectively, after the addition of different doses of isoproterenol to aortic VSM cells from NLC and SM22α-GRK2-25 mice. […] This was also the case for the activity of JNK1/3 and its ability to phosphorylate GST-c-jun (FIG. 7C). […]"}, "[4]": {"system": "thoracic aorta ring segments", "test": "Responses of isolated thoracic aorta ring segments to GPCR agonists", "set-up": "species or system mice", "description": "In Vitro Physiology: Aorta were dissected and cut into 2.5 mm rings. Rings were then placed in a 37° C. chamber (Kent Scientific) containing Krebs-Hensileit buffer and bubbled with 95% O2/5% CO2. Two stainless steel wires were placed through each ring and one wire is attached to a fixed end. The other was attached to a force transducer and contraction is measured by force displacement (PowerLab, ADInstruments, Mountainview, Calif.). Responses to various agonists were tested in the presence and absence (mechanically scraped using a thin wire or chemical inhibition of nitric oxide synthase using 100 μM L-NAME) of endothelial cells. For isoproterenol responses, pretension was established at 60% of the maximum phenylephrine response (3×10^−7M PE).\nPharmacology: To analyze the effect of VSM GRK2 overexpression independent of autonomic influences on the peripheral vasculature, responses of isolated thoracic aorta ring segments to the GPCR agonists isoproterenol (βAR) and phenylephrine ([…]) were examined. Endothelial cell presence was first verified by relaxation responses to 10^−5M acetylcholine. […] Accordingly, pretension for the βAR studies was established using 3×10^−7M phenylephrine, which corresponded to 60% maximum phenylephrine stimulation in both NLC and transgenic mice. […]"}}, "note": "“And” between values parts separate entries of the source, which are not always exact repeats. Equal entries are not always repeated.", "data": [{"molecule": "CC(C)NCC(O)c1ccc(O)c(O)c1", "note": "(stereo not shown) [isoproterenol]", "values": [{"measurement": "cAMP generation", "setting": "aortic VSM cells [1]", "result": "minimal increase"}, {"measurement": "decrease from resting MAP", "setting": "[2]; anesthetized NLC mice", "result": "−30±2.8", "unit": "mmHg"}, {"measurement": "decrease from resting MAP", "setting": "[2]; anesthetized SM22α-GRK2 mice", "result": "−4.7±3.2", "unit": "mmHg"}, {"measurement": "change from resting diastolic pressure", "setting": "[2]; anesthetized BK25 mice, n=4", "result": "−11±3", "unit": "%"}, {"measurement": "change from resting diastolic pressure", "setting": "[2]; anesthetized NLC mice, n=9", "result": "−39±8", "unit": "%"}, {"measurement": "diastolic pressure response", "setting": "[2]; anesthetized BK25 mice, n=4", "result": "−11±3", "unit": "%"}, {"measurement": "diastolic pressure response", "setting": "[2]; anesthetized WT mice, n=9", "result": "−39±8", "unit": "%"}, {"measurement": "MAP responses, GRK2 overexpressing mice compared with NLC", "setting": "[2]; anesthetized mice, cumulative doses of isoproterenol", "result": "not different"}, {"measurement": "induction of phosphorylation status of ERK1/2", "setting": "aortic VSM cells [3]; NLC VSM cells", "result": "robust increase"}, {"measurement": "induction of phosphorylation status of ERK1/2 (activation)", "setting": "aortic VSM cells [3]; SM22α-GRK2-25 VSM cells", "result": "virtually abolished"}]}, {"molecule": "CNC[C@H](O)c1cccc(O)c1", "note": "[phenylephrine]", "values": [{"measurement": "fraction of maximum phenylephrine stimulation (pretension)", "setting": "[4]; 3×10^−7M phenylephrine, aorta rings of both NLC and transgenic mice", "result": 60, "unit": "%"}, {"measurement": "constriction of aorta rings, NLC compared with SM22α-GRK2-25 mice", "setting": "[4]; cumulative dose response", "result": "similar"}, {"measurement": "MAP response (increase over resting MAP)", "setting": "[2]; anesthetized GRK2 overexpressing (BK25) mice, n=4", "result": "4±5", "unit": "%"}, {"measurement": "MAP response (increase over resting MAP)", "setting": "[2]; anesthetized NLC (WT) mice", "result": "44±11", "unit": "%"}]}, {"molecule": "angiotensin II [GPCR agonist infused to raise blood pressure]", "values": [{"measurement": "increase over resting MAP", "setting": "[2]; anesthetized BK25 (GRK2 overexpressing) mice, n=4", "result": "43+8% and 43±8%"}, {"measurement": "increase over resting MAP", "setting": "[2]; anesthetized NLC (WT) mice, n=9", "result": "91+12% and 91±12%"}]}]}
